Our source for the pKa values is the pKa sets of Baltruschat and Czodrowski (2020).

For the compound `O=C([O-])C(CO)NCc1cc(Cl)ccc1[O-]` (stereo not given), the pKa (in general, the pH at which an ionisable group is half protonated) (basic group) was determined as 10.2.
On to `O=C(O)C1CCCCn2nnnc21` (stereo not given), for which the pKa (acidic group) stood at 3.4.
As for `Cc1n[nH]c2c(NCc3ccccc3)ncnc12`, the pKa (basic group) amounted to 4.95.
`Fc1ccc(NC(=S)c2ccc(Cl)cc2)cc1` came in with a pKa (acidic group) of 10.4.
For the compound `C[NH+](C)CCNc1c2ccccc2nc2cccc([N+](=O)[O-])c12`, the pKa (basic group) worked out at 4.9.
The same measure, in the same setting: the same measure for `O=C([O-])CN(CC(=O)[O-])Cc1ccccc1[O-]`: 11.8.
In the case of `CSc1ccc(C(=O)O)cc1`, the pKa (acidic group) is 4.23.
The same measure, in the same setting: the same measure for `Cc1cccc(O)c1C(=O)O`: 3.35.
As for `CC(N)CCCc1ccc(O)cc1` (stereo not given), the pKa (basic group) came out at 9.4.
In turn, `O=C(O)C1(C(=O)O)CCCC1` gave a pKa (acidic group) of 3.24.
The compound `CC(=O)Nc1c(C)n(C)n(-c2ccccc2)c1=O` yielded a pKa (basic group) of 0.18.
In turn, `O=C(O)C1(C(=O)O)CC1` yielded a pKa (acidic group) of 1.92.
For the setting “basic group”, `C#CC(C)(C)NC(C)(C)C#C` displayed a pKa of 6.45.
Still for that read-out and setting: the same measure for `Cc1ccccc1/C(=N\CCCN(C)C)c1ccccc1Cl`: 8.95.
For the setting “acidic group”, `N#Cc1ccccc1-c1nnn[nH]1` yielded a pKa of 3.55.
`CCN1[C@H](C)[C@@H]1C` (stereo not given in full) registered a pKa (basic group) of 8.57.
`C[C@@]12CC(=O)N[C@]1(CCC(=O)[O-])C(=O)NC2=O` registered a pKa (acidic group) of 8.1.
For the setting “acidic group”, `COc1cc2c(cc1OC)[C@@H]1Cc3ccc(OC)c(O)c3[C@H](C2)N1C` showed a pKa of 9.85.
Still for that read-out and setting: the same measure for `Cc1nn(C)c(O)c1-c1ccccc1`: 10.9; for `O=C(C1=C(O)C(=O)c2ccccc2C1=O)c1ccccc1`: 2.17.
`CCc1cc(Cl)c([O-])c(C(=O)NC[C@H]2CCCN2CC)c1OC`: the pKa (basic group) is 9.54.
Still for that read-out and setting: with `CCN(C)NC` the figure was 6.85.
The same measure, in the same setting: with `CC1(C)CCCC(C)(C)N1` the figure was 11.2; with `C[NH2+]CC/C(N)=N/O`, 3.6; with `Cc1ccc2nc(C)c3c(c2c1)OC(C)C3C` (stereo not given), 7.65.
The same measure, in the same setting: with `N#CCN` the figure was 5.37.
Take `O=C(O)/C=C/c1ccc2c(c1)OCO2`: under “acidic group”, the pKa was 4.6.
The same measure, in the same setting: the same measure for `Cc1cc(O)nn1-c1ccccc1`: 12.1.
Compound `CNCC(O)c1ccccc1` (stereo not given) came in with a pKa (basic group) of 9.31.
Still for that read-out and setting: the same measure for `CC(C)CC(N)C(=O)[O-]` (stereo not given): 9.76; for `CCC(=O)C(CCN(C)C)(c1ccccc1)c1ccccc1`: 9.23.
Turning to `[NH3+][C@H]1CC(=O)NC1=O`, the pKa (acidic group) turned out to be 5.9.
In the case of `CNc1ccc[n+](O)c1`, under “basic group”, the pKa is -2.42.
The compound `O=C1CCc2ccc(Cl)cc2C1` returned a pKa (acidic group) of 12.3.
In the case of `c1ccc(-c2nc3ccccc3s2)cc1`, the pKa (basic group) was found to be 0.7.
Same read-out and setting: with `Cc1ccc(C2CCC[NH+]2C)cn1` (stereo not given) the figure was 3.78.
On the same count and under the same terms, with `N[C@@H]1CCCC[C@@H]1[NH3+]` the figure was 6.35.
In turn, `CC1CCCC(=O)C1=O` (stereo not given) showed a pKa (acidic group) of 11.2.
In turn, `CNN(C)C` returned a pKa (basic group) of 6.64.
`C1CNC[NH2+]C1` showed a pKa (basic group) of 4.71.
Still for that read-out and setting: with `CCOC(=O)[C@H](C)N` the figure was 7.8; with `CC([NH3+])C/C(N)=N/O` (stereo not given), 3.75.
With `C/C(=N\O)C(=O)c1ccccc1`, the pKa (acidic group) worked out at 9.25.
As to `Cc1cnc2c(cc(C)c3c(C)ccnc32)c1C`, the pKa (basic group) was determined as 6.45.
On the same count and under the same terms, the same measure for `CC[NH+](CC)CCNc1cc(C)nc(N)n1`: 7.6.
As to `O=C([O-])c1cc([N+](=O)[O-])ccc1O`, the pKa (acidic group) is 10.1.
On the same count and under the same terms, the same measure for `C/C(=C\C=C\C(C)C(=O)O)[C@H]1C[NH2+][C@H](C(=O)[O-])[C@H]1CC(=O)[O-]` (stereo not given in full): 4.93.
Same read-out and setting: the same measure for `Cc1nn(-c2ccccc2)c(O)c1C`: 11.3.
As to `COC(=O)c1ccccn1`, the pKa (basic group) is 2.21.
The same measure, in the same setting: with `O=C([O-])c1ccccn1` the figure was 5.32.
Same read-out and setting: with `COC(=O)CN` the figure was 7.64; with `CCCCCCCCCCCCCN`, 10.6.
On the same count and under the same terms, the same measure for `Cn1ccnc1N=[N+]=[N-]`: 4.05.
`O=C(O)CCc1ccsc1`: under “acidic group”, the pKa is 4.45.
On the same count and under the same terms, with `CC(=O)N(c1ccccc1)c1nnc(S(N)(=O)=O)s1` the figure was 7.32.
As for `CC[C@@H]1C(=O)OC[C@@H]1Cc1cncn1C`, the pKa (basic group) was determined as 6.99.
The same measure, in the same setting: with `CN(C)/C=N/c1cccc(Br)c1` the figure was 8.08.
The compound `O=C(O)c1c(Cl)cccc1[N+](=O)[O-]` gave a pKa (acidic group) of 1.41.
For the compound `Cc1n[nH]c2ccc(N)cc12`, the pKa (basic group) was 5.25.
Turning to `C[NH2+]CCS`, the pKa (acidic group) was determined as 8.02.
`CC(C)N/C=[NH+]/c1ccc(-c2cncn2C)cc1` registered a pKa (basic group) of 6.51.
On the same count and under the same terms, the same measure for `CCCCc1c(C)nc(NCC)nc1[O-]`: 11.
`Nc1ccc(-c2ccc(/N=C/c3ccc(O)cc3)cc2)cc1` yielded a pKa (acidic group) of 9.5 and a pKa (basic group) of 6.86.
`O=S(=O)([O-])c1ccncc1`: for the setting “basic group”, the pKa was 3.44.
Take `[NH3+]c1ccccc1C(=O)O`: under “acidic group”, the pKa worked out at 2.08.
For the setting “basic group”, `Nc1ccc(Cl)cc1Cl` showed a pKa of 2.07.
Compound `Cc1ccc(S(=O)(=O)NCC[NH+](CC(=O)[O-])CC(=O)[O-])cc1` displayed a pKa (acidic group) of 7.86.
Under “basic group”, `C/C(CCN(C)C)=N\[O-]` had a pKa of 11.2.
With `C[n+]1ccccc1S`, the pKa (acidic group) is -1.42.
